Data: US9028845B2, “Chimeric immunomodulatory compounds and methods of using the same-IV” (Dynavax Technologies Corporation, priority 2001, dated 2015)

Tests used:
PBMCs = test: Human PBMC proliferation assay (3H-thymidine incorporation); format: cell-based; conditions: Experiment A; for mean cpm: 2 μg/ml
mouse splenocytes = test: Mouse splenocyte cytokine secretion (IL-6, IL-12, IFN by ELISA); format: cell-based, BALB/c mice; conditions: 24 h
Description: Polynucleotides and chimeric compounds were tested for immunostimulatory activity on mouse splenocytes. Immunostimulation was assessed by measurement of cytokine secretion into the culture media. Cytokine levels in the culture supernatant were determined by enzyme-linked immunosorbent assay (ELISA) tests.
Cells were isolated and prepared using standard techniques. Spleens of 8 to 20 week-old BALB/c mice were harvested and the splenocytes isolated using standard teasing and treatment with ACK lysing buffer from BioWhittaker, Inc. Four spleens were pooled in this experiment. Isolated cells were washed in RPMI 1640 media supplemented with 2% heat-inactivated fetal calf serum (FCS), 50 μM 2-mercaptoethanol, 1% penicillin-streptomycin, and 2 mM L-glutamine and resuspended at approximately […] in 10% FCS/RPMI (RPMI 1640 media with 10% heat-inactivated FCS, 50 μM 2-mercaptoethanol, 1% penicillin-streptomycin, and 2 mM L-glutamine).
Cell cultures were set up in triplicate with approximately 7×10^5 cells/well in a 96-well flat microtiter plate in 100 μl 10% FCS/RPMI with the cells allowed to rest for at lest 1 hour after plating. The indicated test compounds were incubated (at the indicated concentrations) for 24 hours at 37° C. Cell supernatants were harvested and frozen at −80° C. Cytokine production by the cells was determined by ELISAs, as shown in 19.

mouse lung = test: Induction of immune-associated genes in the mouse lung after intranasal treatment (quantitative PCR); format: in vivo, BALB/c mice; conditions: 20 ug intranasal, 6 hrs; vs P-7 treated mice
Description: The genes evaluated included genes encoding cytokines, chemokines, cell surface molecules, transcription factors, metalloproteases, and other molecules. The study was performed at Northview Pacific Laboratories (Hercules, Calif.) with 6-8 week old female BALB/c mice from Jackson Labs (Bar Harbor, Me.). […] Therefore, at 6 hrs the lungs were harvested and snap-frozen in liquid nitrogen and stored at −80° C. for later use. Total RNA was isolated using RNeasy mini kits (Qiagen Inc., Valencia, Calif.). The RNA samples were DNAse-treated (Roche Diagnostics, Mannheim, Germany) and converted into cDNA using Superscript II Rnase H-Reverse Transcriptase (Invitrogen, Rockville Md.) as described in Scheerens et al., 2001, Eur. J. of Immunology 31:1465-74. The cDNA samples were pooled per group and in each pooled sample the expression of mRNA of 75 genes was measured using real-time quantitative PCR (ABI Prism 5700, Perkin Elmer Applied Biosystems) and syber green (Qiagen Inc.). In addition to the genes of interest, in each sample the mRNA expression of a housekeeping gene was measured (HPRT or ubiquitin). In order to correct for the amount of RNA in each sample, all data were calculated relative to the expression of the housekeeping gene.

CD19+ B cells = test: Human B cell proliferation assay (3H-thymidine incorporation); conditions: 2 μg/ml
Description: Purified human B cells from 2 donors were stimulated with 5 μg/ml P-6 or CIC for 96 h. Proliferation was assessed by ^3H-thymidine incorporation.
A CIC is considered to induce “little” human B cell proliferation if B cell proliferation in the presence of the CIC is between greater than 15 to about 30% of P-6.
Human PBMCs were isolated from heparanized blood from two normal subjects. Some PBMCs were held in reserve while the remainder was incubated with CD19+ MACS beads (Miltenyi Biotec). These cells were then passed through a magnet, separating the CD19+ B cells through positive selection. […] B cells were then cultured at 1×10^5/200 μl/well in 96-well round-bottomed plates. In some cases, PBMCs were also cultured, but at 2×10^5/200 μl/well. Cells were stimulated in triplicate with 2 μg/ml polynucleotide or CIC. The culture period was 48 hours at 37° C. At the end of the culture period, the plates were pulsed with ^3H-thymidine, 1 μCi/well, and incubated for an additional 8 hours. Then the plates were harvested using standard liquid scintillation techniques and data was collected in counts per minutes (cpm).

[1] = B cells, Donor 146, Experiment A
[2] = B cells, Donor 147, Experiment A
[3] = B cells, donor 194, Experiment B

Substance “5′-TGACTGTGAACGTTCGAGATGA-3′ (SEQ ID NO: 2) [Compound P-6, reference compound]” has a cpm1 (PBMCs; Donor 146, 2 μg/ml) of 22067 cpm, a cpm2 (PBMCs; Donor 146, 2 μg/ml) of 23740 cpm and a cpm3 (PBMCs; Donor 146, 2 μg/ml) of 28099 cpm. The mean cpm (PBMCs; Donor 146 mean) was 24635 cpm, the cpm1 (PBMCs; Donor 147, 2 μg/ml) was 26436 cpm and the cpm2 (PBMCs; Donor 147, 2 μg/ml) was 23830 cpm. It also gave a cpm3 (PBMCs; Donor 147, 2 μg/ml) of 17531 cpm, a mean cpm (PBMCs; Donor 147 mean) of 22599 cpm and a mean of both (PBMCs; mean of Donors 146 and 147, 2 μg/ml) of 23617 cpm. For the same substance, the IFN (mouse splenocytes; dose 0.1 μg/ml) was 187, the IL-12 (mouse splenocytes; dose 0.1 μg/ml) was 1665 and the IFN (mouse splenocytes; dose 1.0 μg/ml) was 2175. For the same substance, the IL-6 (mouse splenocytes; dose 1.0 μg/ml) was 5760, the IL-12 (mouse splenocytes; dose 1.0 μg/ml) was 4565 and the IFN (mouse splenocytes; dose 5.0 μg/ml) was 2505. For the same substance, the IL-6 (mouse splenocytes; dose 5.0 μg/ml) was 9311, the IL-12 (mouse splenocytes; dose 5.0 μg/ml) was 5374 and the “mRNA expression of immune-associated genes in the lung, in words” value (mouse lung) was “potently induce the expression of a variety of genes”. For the same substance, the “B cell proliferation, in words” value (CD19+ B cells; 48 h plus 8 h 3H-thymidine pulse) was “cause B cells to proliferate”, the cpm1 (CD19+ B cells; [1]) was 29280 cpm and the cpm2 (CD19+ B cells; [1]) was 33430 cpm. For the same substance, the cpm3 (CD19+ B cells; [1]) was 30056 cpm, the mean cpm (CD19+ B cells; B cells, Donor 146 mean, Experiment A) was 30922 cpm and the cpm1 (CD19+ B cells; [2]) was 35729 cpm. For the same substance, the cpm2 (CD19+ B cells; [2]) was 18032 cpm, the cpm3 (CD19+ B cells; [2]) was 21166 cpm and the mean cpm (CD19+ B cells; B cells, Donor 147 mean, Experiment A) was 24976 cpm. It also gave a cpm1 (CD19+ B cells; [3]) of 13678 cpm, a cpm2 (CD19+ B cells; [3]) of 12732 cpm and a cpm3 (CD19+ B cells; [3]) of 9003 cpm. For the same substance, the mean cpm (CD19+ B cells; B cells, donor 194 mean, Experiment B) was 11804 cpm and the mean of both (CD19+ B cells; B cells, mean of Donors 146 and 147, Experiment A) was 27949 cpm.
